“And” between values parts separate entries of the source, which are not always exact repeats. Identical values can stand only once. Inconclusive results and toxic doses are left out.
Test system: P388 leukemia ip, CD2F1 mice, survival T/C
Test: NCI In Vivo Anticancer Drug Screen. Data for tumor model P388 Leukemia (intraperitoneal) in CD2F1 (CDF1) mice
Details: endpoint: median survival time, higher = longer survival
Summary of the method: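 Mice carrying the transplanted tumor received test compound or vehicle. Survival was recorded in each group, and the value is the treated-group measurement divided by that of the vehicle-treated control group.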

[1] = dose: 50.0 mg/kg/injection, schedule: Q01DX005 (ip), vehicle: Klucel (hydroxypropylcellulose) (HPC)
[2] = dose: 100.0 mg/kg/injection, schedule: Q01DX005 (ip), vehicle: Klucel (hydroxypropylcellulose) (HPC)
[3] = dose: 12.5 mg/kg/injection, schedule: Q01DX005 (ip), vehicle: Klucel (hydroxypropylcellulose) (HPC)
[4] = dose: 25.0 mg/kg/injection, schedule: Q01DX005 (ip), vehicle: Klucel (hydroxypropylcellulose) (HPC)
[5] = dose: 25.0 mg/kg/injection, schedule: Q01DX009 (ip), vehicle: saline with Tween-80
[6] = dose: 60.0 mg/kg/injection, schedule: Q01DX005 (ip), vehicle: Klucel (hydroxypropylcellulose) (HPC)
[7] = dose: 120.0 mg/kg/injection, schedule: Q01DX005 (ip), vehicle: Klucel (hydroxypropylcellulose) (HPC)
[8] = dose: 240.0 mg/kg/injection, schedule: Q01DX005 (ip), vehicle: Klucel (hydroxypropylcellulose) (HPC)
[9] = dose: 50.0 mg/kg/injection, schedule: Q01DX005 (ip), vehicle: saline

In the case of `CCN1CC2(COC)C(O)CC(OC)C34C5CC6(O)C(OC)C=C(C5C6OC(=O)c5ccc(OC)c(OC)c5)C(C(OC)C23)C14` (configuration not stated), the T/C (dose: 0.05 mg/kg/injection, schedule: Q01DX009 (ip), vehicle: Klucel (hydroxypropylcellulose) (HPC)) is reported as 90 % of control, the T/C (dose: 0.05 mg/kg/injection, schedule: Q01DX009 (ip), vehicle: saline with Tween-80) is reported as 102 % of control and the T/C (dose: 0.1 mg/kg/injection, schedule: Q01DX009 (ip), vehicle: Klucel (hydroxypropylcellulose) (HPC)) is reported as 91 % of control. For the same molecule, the T/C (dose: 0.1 mg/kg/injection, schedule: Q01DX009 (ip), vehicle: saline with Tween-80) was 96 % of control, the T/C (dose: 0.2 mg/kg/injection, schedule: Q01DX009 (ip), vehicle: Klucel (hydroxypropylcellulose) (HPC)) was 100 % of control and the T/C (dose: 0.2 mg/kg/injection, schedule: Q01DX009 (ip), vehicle: saline with Tween-80) was 91 % of control. For the same molecule, the T/C (dose: 0.4 mg/kg/injection, schedule: Q01DX009 (ip), vehicle: Klucel (hydroxypropylcellulose) (HPC)) was 116 % of control and the T/C (dose: 0.4 mg/kg/injection, schedule: Q01DX009 (ip), vehicle: saline with Tween-80) was 91 % of control.
For `Cc1cccc(Nc2nc(C)nc3[nH]cc(C)c23)c1`, the T/C [1] was 92 % of control and the T/C [2] was 90 % of control.
For `COc1cc(C)c2c(OC)c(C)c(=O)oc2c1OC`, the T/C (dose: 6.25 mg/kg/injection, schedule: Q01DX005 (ip), vehicle: Klucel (hydroxypropylcellulose) (HPC)) was 105 % of control, the T/C [3] was 100 % of control and the T/C [4] was 97 % of control. The T/C [1] was 104 % of control.
For `CC(=O)O[C@@H]1C(=O)[C@]2(CO)C(C(OC(=O)c3ccccc3)C3(O)CC(O)C(C)=C1C3(C)C)[C@@]1(OC(C)=O)CO[C@H]1C[C@H]2O` (some centres not stated), the T/C (dose: 0.26 mg/kg/injection, schedule: Q01DX009 (ip), vehicle: distilled water + alcohol) was 108 % of control, the T/C (dose: 0.53 mg/kg/injection, schedule: Q01DX009 (ip), vehicle: distilled water + alcohol) was 106 % of control and the T/C (dose: 1.07 mg/kg/injection, schedule: Q01DX009 (ip), vehicle: distilled water + alcohol) was 106 % of control. For the same molecule, the T/C (dose: 2.15 mg/kg/injection, schedule: Q01DX009 (ip), vehicle: distilled water + alcohol) was 105 % of control and the T/C (dose: 4.3 mg/kg/injection, schedule: Q01DX009 (ip), vehicle: distilled water + alcohol) was 108 % of control.
With `CC(=O)/C=C(\C)Nc1noc(-c2ccccc2)n1` the T/C (dose: 4.38 mg/kg/injection, schedule: Q01DX005 (ip), vehicle: Klucel (hydroxypropylcellulose) (HPC)) was 102 % of control, the T/C (dose: 8.75 mg/kg/injection, schedule: Q01DX005 (ip), vehicle: Klucel (hydroxypropylcellulose) (HPC)) was 96 % of control and the T/C (dose: 17.5 mg/kg/injection, schedule: Q01DX005 (ip), vehicle: Klucel (hydroxypropylcellulose) (HPC)) was 101 % of control.
`CN(C)CCN(C)CC(C)(C)C(=O)/C=C/c1ccccc1` was tested, and the T/C (dose: 60.0 mg/kg/injection, schedule: Q01DX005 (ip), vehicle: saline) was 106 % of control and the T/C (dose: 120.0 mg/kg/injection, schedule: Q01DX005 (ip), vehicle: saline) was 107 % of control.
For `CCN(N=Nc1ccc(OC)cc1)c1ccc(OC)cc1`, the T/C (dose: 12.5 mg/kg/injection, schedule: Q01DX009 (ip), vehicle: saline with Tween-80) was 103 % of control and 96 % of control, the T/C [5] was 108 % of control and 109 % of control and the T/C (dose: 50.0 mg/kg/injection, schedule: Q01DX009 (ip), vehicle: saline with Tween-80) was 116 % of control and 117 % of control. For the same molecule, the T/C (dose: 100.0 mg/kg/injection, schedule: Q01DX009 (ip), vehicle: saline with Tween-80) was 100 % of control and 124 % of control.
`CN(C)CCCN1c2ccccc2Sc2ccc(F)cc21` was tested, and the T/C (dose: 50.0 mg/kg/injection, schedule: Q01DX009 (ip), vehicle: saline) was 122 % of control.
`CCOC(=O)C1=C(C)NC(SC)=NC1c1ccccc1` (configuration not stated) was tested, and the T/C [6] was 99 % of control, the T/C [7] was 97 % of control and the T/C [8] was 99 % of control.
`CC(C)CCC[C@@H](C)[C@H]1CC[C@H]2[C@@H]3CC[C@H]4C[C@H](N)CC[C@]4(C)[C@H]3CC[C@]12C` was tested, and the T/C [3] was 100 % of control, the T/C [4] was 93 % of control and the T/C [1] was 112 % of control and 97 % of control.
In the case of `NNC(=O)CCC(N)C(=O)O` (configuration not stated), the T/C (dose: 50.0 mg/kg/injection, schedule: Q01DX009 (ip), vehicle: saline sonified) is reported as 100 % of control, the T/C (dose: 50.0 mg/kg/injection, schedule: Q04DX003 (ip), vehicle: saline with Tween-80) is reported as 95 % of control and the T/C (dose: 100.0 mg/kg/injection, schedule: Q01DX009 (ip), vehicle: saline sonified) is reported as 113 % of control. The T/C (dose: 100.0 mg/kg/injection, schedule: Q04DX003 (ip), vehicle: saline with Tween-80) was 90 % of control and the T/C (dose: 200.0 mg/kg/injection, schedule: Q04DX003 (ip), vehicle: saline with Tween-80) was 109 % of control.
With `CCOC(=O)C(Cc1ccc(O)c(C=O)c1)NC(C)=O` (configuration not stated) the T/C [6] was 96 % of control, the T/C [7] was 97 % of control and the T/C [8] was 98 % of control.
For `CC(=O)[O][Hg][O]C(C)=O`, the T/C (dose: 1.25 mg/kg/injection, schedule: Q01DX009 (ip), vehicle: saline with Tween-80) was 95 % of control.
In the case of `CC(O)CC(O)CC1CCCO1` (configuration not stated), the T/C (dose: 12.5 mg/kg/injection, schedule: Q01DX005 (ip), vehicle: saline) is reported as 98 % of control, the T/C (dose: 25.0 mg/kg/injection, schedule: Q01DX005 (ip), vehicle: saline) is reported as 97 % of control and the T/C [9] is reported as 98 % of control and 88 % of control.
With `C=C1C(=O)C23C(O)C1CCC2C12COC3(O)C(O)C1C(C)(C)CCC2OC(C)=O` (configuration not stated) the T/C (dose: 10.0 mg/kg/injection, schedule: Q01DX009 (ip), vehicle: saline with Tween-80) was 117 % of control, the T/C (dose: 20.0 mg/kg/injection, schedule: Q01DX009 (ip), vehicle: saline with Tween-80) was 117 % of control and the T/C [5] was 110 % of control.
With `CCC(/C=C/c1ccccc1)=N\NC(=O)c1ccc(Cl)cc1` the T/C (dose: 60.0 mg/kg/injection, schedule: Q01DX005 (ip), vehicle: saline with Tween-80) was 101 % of control, the T/C (dose: 120.0 mg/kg/injection, schedule: Q01DX005 (ip), vehicle: saline with Tween-80) was 96 % of control and the T/C (dose: 240.0 mg/kg/injection, schedule: Q01DX005 (ip), vehicle: saline with Tween-80) was 105 % of control.
For `NCCCCS(=O)(=O)Nc1ccc(Nc2c3ccccc3nc3cc([N+](=O)[O-])ccc23)cc1`, the T/C (dose: 22.0 mg/kg/injection, schedule: Q04DX003 (ip), vehicle: saline) was 122 % of control, the T/C (dose: 38.9 mg/kg/injection, schedule: Q04DX003 (ip), vehicle: water) was 164 % of control and the T/C (dose: 50.0 mg/kg/injection, schedule: Q04DX003 (ip), vehicle: saline) was 150 % of control. The T/C (dose: 64.8 mg/kg/injection, schedule: Q04DX003 (ip), vehicle: water) was 180 % of control, the T/C (dose: 75.0 mg/kg/injection, schedule: Q04DX003 (ip), vehicle: saline) was 150 % of control and the T/C (dose: 108.0 mg/kg/injection, schedule: Q04DX003 (ip), vehicle: water) was 198 % of control. The T/C (dose: 150.0 mg/kg/injection, schedule: Q04DX003 (ip), vehicle: saline) was 172 % of control, the T/C (dose: 180.0 mg/kg/injection, schedule: Q04DX003 (ip), vehicle: water) was 99 % of control and the T/C (dose: 300.0 mg/kg/injection, schedule: Q04DX003 (ip), vehicle: saline) was 118 % of control.
For `Clc1ccc(N=Cc2ccc(C=Nc3ccc(Cl)cn3)cc2)nc1`, the T/C (dose: 50.0 mg/kg/injection, schedule: Q01DX009 (ip), vehicle: Klucel (hydroxypropylcellulose) (HPC)) was 91 % of control, the T/C (dose: 100.0 mg/kg/injection, schedule: Q01DX009 (ip), vehicle: Klucel (hydroxypropylcellulose) (HPC)) was 94 % of control and the T/C (dose: 200.0 mg/kg/injection, schedule: Q01DX009 (ip), vehicle: Klucel (hydroxypropylcellulose) (HPC)) was 93 % of control.
For `CCN(CC)C(C)CN1c2ccccc2Sc2ccccc21` (configuration not stated), the T/C [9] was 100 % of control, the T/C (dose: 100.0 mg/kg/injection, schedule: Q01DX005 (ip), vehicle: saline) was 99 % of control and the T/C (dose: 200.0 mg/kg/injection, schedule: Q01DX005 (ip), vehicle: saline) was 100 % of control.
In the case of `CC(=O)c1ccc2c3c(cc(C)c2c1)CCCC3`, the T/C [1] is reported as 103 % of control, the T/C [2] is reported as 99 % of control and the T/C (dose: 200.0 mg/kg/injection, schedule: Q01DX005 (ip), vehicle: Klucel (hydroxypropylcellulose) (HPC)) is reported as 89 % of control.
In the case of `COCNC(=O)N=C1N(COC)COCN1COC`, the T/C (dose: 100.0 mg/kg/injection, schedule: Q01DX001 (ip), vehicle: saline with Tween-80) is reported as 109 % of control, the T/C (dose: 200.0 mg/kg/injection, schedule: Q01DX001 (ip), vehicle: saline with Tween-80) is reported as 106 % of control and the T/C (dose: 400.0 mg/kg/injection, schedule: Q01DX001 (ip), vehicle: saline with Tween-80) is reported as 100 % of control.
With `Cn1c2ccccc2c(=S)c2cc(NC(=O)CCCCC(=O)Nc3ccc4c(c3)c(=S)c3ccccc3n4C)ccc21` the T/C (dose: 50.0 mg/kg/injection, schedule: Q01DX005 (ip), vehicle: saline with Tween-80) was 110 % of control, the T/C (dose: 100.0 mg/kg/injection, schedule: Q01DX005 (ip), vehicle: saline with Tween-80) was 98 % of control and the T/C (dose: 200.0 mg/kg/injection, schedule: Q01DX005 (ip), vehicle: saline with Tween-80) was 104 % of control.
